Biological target: LANCL2 (Homo sapiens (Human), UniProt Q9NS86)
Assay: SPR (BIACORE S200) kinetic determination of LANCL2-small molecule interactions
Type: binding
Settings: for Kd: immobilized LANCL2, 1:1 binding model, pH 6.5, 25° C.; for Rmax (RU): maximum binding force
Description: 1.1 Reagent Materials • Ligand: LANCL2 • Running buffer: 20 mM MES, 150 mM NaCl, 0.05% P20, pH 6.5, 1% DMSO
Injection conditions for small molecule compounds: a flow rate of 30 μL/min, a binding time of 60 s, a dissociation time of 300 s.
Running buffer: 20 mM MES, 150 mM NaCl, 0.05% P20, pH 6.5, 1% DMSO.
Sample chamber temperature: 25° C.; analysis temperature: 25° C.
Kinetic determination of LANCL2-small molecule interactions was performed. The kinetic parameters of small molecules BT-11 and L-1 to 60 (analytes) binding to LANCL2 (ligand) were determined using BIACORE S200. Data were generated in triplicate in a dose-dependent manner (5-8 titration points) and analyzed to determine binding models (Langmuir, conformational shifts, etc.), real-time association and dissociation constants, and equilibrium dissociation constants. SPR technology allows the validation of specific LANCL2-phytochemical interactions as well as an increased insight into the gold standard of binding mechanisms and rates. Experiments were performed on carboxymethyl polydextrose (CM5) sensor chips by amine-coupled covalent attachment of LANCL2. Data were analyzed with BIACORE S200T200 evaluation software (version 1), so as to determine affinity binding constants (KD) using a 1:1 binding model.
An optical technique for detecting molecular interactions, SPR, was used to measure the binding affinity between LANCL2 and a ligand thereof (compound to be tested). Purified recombinant LANCL2 protein was immobilized on a BIACORE sensor chip and small molecules were injected onto the protein surface using an equipment of microfluidic system. The change in total mass on the chip surface, corresponding to a small binding to the protein, was measured. […] The equilibrium dissociation constant (Kd) was often used to describe the affinity between a ligand and a protein, such as affinity degree of a ligand binding to a specific protein. Ligand-protein affinity was affected by non-covalent intermolecular interactions between two molecules, such as hydrogen bonding, electrostatic interactions, hydrophobic bonds and van der Waals forces. The steady-state affinity (Kd) for each interaction could be measured by plotting equilibrium binding levels against compound concentrations.

Chain of LANCL2 (Q9NS86 whole entry, species assumed): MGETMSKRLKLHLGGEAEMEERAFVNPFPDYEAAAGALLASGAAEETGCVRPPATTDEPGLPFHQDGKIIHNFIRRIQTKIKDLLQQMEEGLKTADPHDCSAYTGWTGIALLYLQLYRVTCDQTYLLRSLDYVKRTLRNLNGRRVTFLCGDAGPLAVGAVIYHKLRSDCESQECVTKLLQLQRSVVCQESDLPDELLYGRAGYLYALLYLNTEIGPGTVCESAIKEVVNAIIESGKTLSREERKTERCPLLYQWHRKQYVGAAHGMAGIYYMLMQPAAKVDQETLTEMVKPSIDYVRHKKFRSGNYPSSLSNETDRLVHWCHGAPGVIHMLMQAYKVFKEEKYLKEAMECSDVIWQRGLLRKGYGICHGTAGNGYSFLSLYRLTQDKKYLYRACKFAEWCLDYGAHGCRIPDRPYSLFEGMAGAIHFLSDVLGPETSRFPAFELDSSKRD

Row | Kd [µM] | Rmax (RU) | Compound | binding activity compared with positive reference compound BT-11
1 | 21.5 | 3.3 | O=C(c1cccc(-c2nc3ccccc3[nH]2)n1)N1CCC2(CCCN(C(=O)c3cccc(-c4nc5ccccc5[nH]4)n3)C2)CC1 [Embodiment L-58, (2,9-diazaspiro[5.5]undecane-2,9-diyl)bis(6-(1H-benzo[d]imidazol-2-yl)pyridin-2-yl)methanone] | 
2 | 10.3 | 7 | O=C(c1cnc2ccccc2c1)N1CC2CN(C(=O)c3cccc(-c4nc5ccccc5[nH]4)n3)CC2C1 [Embodiment L-122, (5-(6-(1Hbenzo[d]imidazol-2-yl)picolinoyl)hexahydropyrrolo[3,4-c]pyrrol-2(1H)-yl)(quinolin-3-yl)methanone] | 
3 | 16.4 | 9.7 | O=C(NC1CCN(C(=O)c2cccc(-c3cn4ccccc4n3)c2)CC1)c1cccc(-c2cn3ccccc3n2)c1 [Embodiment L-88, 3-(imidazo[1,2-a]pyridin-2-yl)-N-(1-(3-(imidazo[1,2-a]pyridin-2-yl)benzoyl)piperidin-4-yl)benzamide] | 
4 | 66.1 | 14.4 | CN1CCC2(CC1)CCN(c1ccc(NC(=O)C3CCN(C(=O)c4cccc(-c5nc6ccccc6[nH]5)n4)C3)cc1)CC2 [Embodiment L-35, 1-(6-(1H-benzo[d]imidazol-2-yl)picolinoyl)-N-(4-(9-methyl-3,9-diazaspiro[5.5]undecan-3-yl)phenyl)pyrrolidine-3-carboxamide] | 
5 | 20.8 | 2.3 | O=C1CCC(C(=O)N2CC3CN(C(=O)c4cccc(-c5nc6ccccc6[nH]5)n4)CC3C2)=NN1 [Embodiment L-121, 6-(5-(6-(1Hbenzo[d]imidazol-2-yl)picolinoyl)octahydropyrrolo[3,4-c]pyrrole-2-carbonyl)-4,5-dihydropyridazin-3(2H)-one] | 
6 | 40.5 | 3.3 | O=C(c1cccc(-c2nc3ccccc3[nH]2)n1)N1CC2CN(C(=O)C3CCC(c4ccc(Cl)cc4)CC3)CC2C1 [Embodiment L-126, (5-(6-(1Hbenzo[d]imidazol-2-yl)picolinoyl)hexahydropyrrolo[3,4-c]pyrrol-2(1H)-yl)(4-(4-chlorophenyl)cyclohexyl)methanone] | 
7 | 13.3 | 6.5 | O=C(c1cccc(-c2nc3ccccc3[nH]2)n1)N1CCC2(CC1)CCN(C(=O)c1ccnc(Nc3ccccc3)n1)CC2 [Embodiment L-27, (9-(6-(1H-benzo[d]imidazol-2-yl)picolinoyl)-3,9-diazaspiro[5.5]undecan-3-yl)(2-(phenylamino)pyrimidin-4-yl)methanone] | 
8 | 17.7 | 20.8 | NC(=O)c1sccc1NC(=O)c1ccc(C(=O)N2CCN(C(=O)c3cccc(-c4nc5ccccc5[nH]4)n3)CC2)cc1 [Embodiment L-115, 3-(4-(4-(6-(1H-benzo[d]imidazol-2-yl)picolinoyl)piperazine-1-carbonyl)benzamido)thiophene-2-carboxamide] | 
9 | 5.84 | 8 | Cc1cn(-c2cccc(C(=O)N3CC4C(C3)C4NC(=O)c3cccc(-c4nc5ccccc5[nH]4)n3)c2)cn1 [Embodiment L-93, 6-(1H-benzo[d]imidazol-2-yl)-N-(3-(3-(4-methyl-1H-imidazol-1-yl)benzoyl)-3-azabicyclo[3.1.0]hexane-6-yl)picolinamide] | 
10 | 30.4 | 10.6 | O=C(c1cccc(Nc2ccccc2)n1)N1CC2CN(C(=O)c3cccc(-c4nc5ccccc5[nH]4)n3)CC2C1 [Embodiment L-46, (5-(6-(1H-benzo[d]imidazol-2-yl)picolinoyl)hexahydropyrrolo[3,4-c]pyrrol-2(1H)-yl)(6-(phenylamino)pyridin-2-yl)methanone] | 
11 | 9.38 | 5.1 | O=C(c1ccc(-c2ccccc2)cc1)N1CC2CN(C(=O)c3cccc(-c4nc5ccccc5[nH]4)n3)CC2C1 [Embodiment L-127, (5-(6-(1Hbenzo[d]imidazol-2-yl)picolinoyl)hexahydropyrrolo[3,4-c]pyrrol-2(1H)-yl)([1,1′-biphenyl]-4-yl)methanone] | 
12 | 6.78 | 10.8 | O=C(Nc1cccc(-c2cn3ccccc3n2)c1)Nc1cccc(-c2cn3ccccc3n2)c1 [Embodiment L-119, 1,3-Bis(3-(imidazo[1,2-a]pyridin-2-yl)phenyl)urea] | 
13 | 53.5 | 7.6 | O=C(c1cccc(Nc2ccccc2)n1)N1CCCC2(CCN(C(=O)c3cccc(-c4nc5ccccc5[nH]4)n3)CC2)C1 [Embodiment L-63, (9-(6-(1H-benzo[d]imidazol-2-yl)picolinoyl)-2,9-diazaspiro[5.5]undecan-2-yl)(6-(phenylamino)pyridin-2-yl)methanone] | 
14 | 1.9 | 7.3 | O=C(NC1C2CN(C(=O)c3cccc(-c4nc5ccccc5s4)c3)CC21)c1cccc(-c2nc3ccccc3[nH]2)n1 [Embodiment L-77, 6-(1H-benzo[d]imidazol-2-yl)-N-(3-(3-(benzo[d]thiazol-2-yl)benzoyl)-3-azabicyclo[3.1.0]hexane-6-yl)picolinamide] | better binding activities than the positive reference compound BT-11
15 | 24.8 | 13 | O=C(NC1CCN(C(=O)c2ccnc(Nc3ccccc3)n2)CC1)c1ccnc(Nc2ccccc2)n1 [Embodiment L-79] | 
16 | 48.4 | 13.7 | O=C(c1cnc2ccccc2c1)N1CCN(C(=O)c2cccc(-c3nc4ccccc4[nH]3)n2)CC1 [Embodiment L-108, (4-(6-(1H-benzo[d]imidazol-2-yl)picolinoyl)piperazin-1-yl)(quinolin-3-yl)methanone] | 
17 | 23.5 | 5.2 | Cc1ccc2cc(C(=O)N3CC4CN(C(=O)c5cccc(-c6nc7ccccc7[nH]6)n5)CC4C3)ccc2n1 [Embodiment L-125, (5-(6-(1Hbenzo[d]imidazol-2-yl)picolinoyl)hexahydropyrrolo[3,4-c]pyrrol-2(1H)-yl)(2-methylquinolin-6-yl)methanone] | 
18 | 9.88 | 7.3 | O=C(NC1CCN(C(=O)c2cccc(-c3nc4ccccc4[nH]3)n2)CC1)c1ccnc(Nc2ccccn2)n1 [Embodiment L-21] | 
19 | 14.9 | 3.6 | O=C(c1cccc(-c2nc3ccccc3[nH]2)n1)N1CCC2(CC1)CCN(C(=O)c1cccc(-c3nc4ccccc4[nH]3)n1)C2 [Embodiment L-59, (2,8-diaza[4.5]decane-2,8-diyl)bis(6-(1H-benzo[d]imidazol-2-yl)pyridin-2-yl)methanone] | 
20 | 8.79 | 4.8 | O=C(c1ccc(F)c(Cl)c1)N1CC2CN(C(=O)c3cccc(-c4nc5ccccc5[nH]4)n3)CC2C1 [Embodiment L-124, (5-(6-(1Hbenzo[d]imidazol-2-yl)picolinoyl)hexahydropyrrolo[3,4-c]pyrrol-2(1H)-yl)(3-chloro-4-fluorophenyl)methanone] | 
21 | 8.73 | 4.5 | O=C(c1cccc(-c2cn3ccccc3n2)c1)N1CCC2(CC1)CCN(C(=O)c1cccc(-c3cn4ccccc4n3)c1)CC2 [Embodiment L-73, (3,9-diazaspiro[5.5]undecane-3,9-diyl)bis((3-(imidazo[1,2-a]pyridin-2-yl)phenyl)methanone)] | 
22 | 81.5 | 14.4 | O=C(c1ccnc(Nc2ccccc2)n1)N1CCC2(CC1)CCN(C(=O)c1ccnc(Nc3ccccc3)n1)CC2 [Embodiment L-78, (3,9-diazaspiro[5.5]undecane-3,9-diyl)bis((2-(phenylamino)pyrimidin-4-yl)methanone)] | 
23 | 22.1 | 8.9 | O=C(c1cccc(-c2nc3ccccc3[nH]2)n1)N1CC2CN(C(=O)c3n[nH]c4ccccc34)CC2C1 [Embodiment L-120, (5-(6-(1Hbenzo[d]imidazol-2-yl)picolinoyl)hexahydropyrrolo[3,4-c]pyrrol-2(1H)-yl)(1H-indazol-3-yl)methanone] | 

Row | Compound | Kd [µM] | Rmax (RU) | binding activity compared with positive reference compound BT-11
24 | O=C(c1cccc(Nc2ccccc2)n1)N1CC2CN(C(=O)c3cccc(Nc4ccccc4)n3)CC2C1 [Embodiment L-100] | 38.5 | 7.8 | 
25 | O=C(N[C@H]1[C@@H]2CN(C(=O)c3sccc3-n3cccc3)C[C@@H]21)c1cccc(-c2cn3ccccc3n2)c1 [Embodiment L-104, N-((1R,5S,6s)-3-(3-(1H-pyrrol-1-yl)thiophene-2-carbonyl)-3-azabicyclo[3.1.0]hexan-6-yl)-3-(imidazo[1,2-a]pyridin-2-yl)benzamide] | 12.5 | 9.7 | 

From patent publication US20240101552A1, “CARBONYL HETEROCYCLIC COMPOUND AND APPLICATION THEREOF” (SHANGHAI PHARMACEUTICALS HOLDING CO., LTD., priority 2020, published 2024)
